Reference: article PMC10127221 (ACS Chemical Biology, 2023)
Entries after “also recorded” stand apart in the source; their conditions may differ. Like-named read-outs stand apart in the source and are kept apart here. Values belong to the molecule of their own block, whether it stands above or below them.

How the values were obtained:
CamA [1] = target: T1, CamA (Clostridioides difficile, UniProt Q183J3); assay: CamA methylation inhibition assay; type: biochemical; conditions: for inhibition of CamA activity at single concentration / inhibition of CamA activity (selectivity panel): 10 μM compound; for inhibition of CamA activity at single concentration: 50 nM CamA, 40 μM SAM (Figure 1B); for inhibition of CamA activity (selectivity panel): 40 μM SAM (Figure 4A); for fold difference in CamA inhibition between 11a and 11b: 11a more potent than 11b
T1 sequence (Q183J3 1-577): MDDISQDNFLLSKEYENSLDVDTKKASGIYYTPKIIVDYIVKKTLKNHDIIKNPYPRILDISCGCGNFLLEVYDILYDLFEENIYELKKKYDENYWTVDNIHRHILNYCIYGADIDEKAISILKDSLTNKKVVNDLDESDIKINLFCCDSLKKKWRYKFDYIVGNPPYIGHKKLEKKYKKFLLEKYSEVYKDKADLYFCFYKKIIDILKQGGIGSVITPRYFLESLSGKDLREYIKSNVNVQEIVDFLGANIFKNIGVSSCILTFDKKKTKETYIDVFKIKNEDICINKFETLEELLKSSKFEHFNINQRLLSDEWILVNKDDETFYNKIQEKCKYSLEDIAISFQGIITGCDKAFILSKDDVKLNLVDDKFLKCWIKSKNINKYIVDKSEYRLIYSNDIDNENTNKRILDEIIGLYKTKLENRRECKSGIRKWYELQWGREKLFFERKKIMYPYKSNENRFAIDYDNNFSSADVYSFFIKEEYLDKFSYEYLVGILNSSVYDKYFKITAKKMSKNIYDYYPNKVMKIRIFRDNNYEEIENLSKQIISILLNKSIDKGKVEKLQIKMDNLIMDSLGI

PRMT3 = PRMT3 (Homo sapiens, UniProt O60678); assay: PRMT3 inhibition, fluorescence-based SAHH-coupled assay; type: biochemical
CcrM = CcrM (Caulobacter vibrioides, UniProt P0CAW2); assay: Compound selectivity assay; type: biochemical; conditions: read-out: inhibition of CcrM activity, 10 μM compound, 40 μM SAM (Figure 4B)
Dam = target: T2, Dam (Escherichia coli, UniProt P0AEE8); assay: Compound selectivity assay; type: biochemical; conditions: read-out: inhibition of Dam activity, 10 μM compound, 40 μM SAM (Figure 4C)
T2 sequence (P0AEE8 1-278): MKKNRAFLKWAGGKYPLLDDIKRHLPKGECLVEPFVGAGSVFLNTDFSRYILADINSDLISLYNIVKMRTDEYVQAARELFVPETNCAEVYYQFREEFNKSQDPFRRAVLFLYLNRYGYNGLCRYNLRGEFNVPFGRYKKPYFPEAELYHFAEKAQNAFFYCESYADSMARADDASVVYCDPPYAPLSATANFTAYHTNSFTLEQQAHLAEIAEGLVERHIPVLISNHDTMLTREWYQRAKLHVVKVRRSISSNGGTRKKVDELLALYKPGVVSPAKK

MettL3–MettL14 = MettL3–MettL14 (Homo sapiens, UniProt Q86U44); assay: Compound selectivity assay; type: biochemical; conditions: for inhibition at 10 µM: read-out: inhibition of MettL3–MettL14 activity
MettL5–Trm112 = MettL5–Trm112 (Homo sapiens, UniProt Q9NRN9); assay: Compound selectivity assay; type: biochemical; conditions: read-out: inhibition of MettL5–Trm112 activity
MettL16 = target: T3, MettL16 (Homo sapiens, UniProt Q86W50); assay: Compound selectivity assay; type: biochemical; conditions: read-out: inhibition of MettL16 activity, 10 μM compound, 160 μM SAM (Figure 4F)
T3 sequence (Q86W50 1-562): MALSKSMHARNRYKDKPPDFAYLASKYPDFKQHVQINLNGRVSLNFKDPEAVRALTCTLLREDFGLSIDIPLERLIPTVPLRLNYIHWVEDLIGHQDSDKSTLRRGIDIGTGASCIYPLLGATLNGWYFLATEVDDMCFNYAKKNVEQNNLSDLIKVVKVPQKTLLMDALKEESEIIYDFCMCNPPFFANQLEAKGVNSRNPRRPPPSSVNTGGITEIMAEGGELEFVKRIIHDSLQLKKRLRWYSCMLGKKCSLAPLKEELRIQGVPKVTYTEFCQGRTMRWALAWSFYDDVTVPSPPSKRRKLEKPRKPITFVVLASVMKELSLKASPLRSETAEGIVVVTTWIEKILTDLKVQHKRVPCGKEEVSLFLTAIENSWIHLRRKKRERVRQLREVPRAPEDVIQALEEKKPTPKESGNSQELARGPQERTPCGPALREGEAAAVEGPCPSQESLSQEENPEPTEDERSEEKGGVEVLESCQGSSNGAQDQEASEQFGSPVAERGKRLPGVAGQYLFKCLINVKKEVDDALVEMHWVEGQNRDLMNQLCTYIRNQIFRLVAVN

PCIF1 = PCIF1 (Homo sapiens, UniProt Q9H4Z3); assay: Compound selectivity assay; type: biochemical; conditions: read-out: inhibition of PCIF1 activity
PRMT1 = PRMT1 (Homo sapiens, UniProt Q99873); assay: PRMT1 inhibition, fluorescence-based SAHH-coupled assay; type: biochemical; conditions: for IC50: IC50 PRMT1, 0.1 μM PRMT1, 10 μM SAM, 5 μM H4 peptide (1–21)
CamA [2] = target: T1, CamA; conditions: read-out: Km of CamA for SAM; previous measurements; cited from earlier work
MettL5 = conditions: read-out: SAM Km of MettL5; cited from earlier work

Sequence of PRMT1 (Q99873 10-352 isoform Q99873-3): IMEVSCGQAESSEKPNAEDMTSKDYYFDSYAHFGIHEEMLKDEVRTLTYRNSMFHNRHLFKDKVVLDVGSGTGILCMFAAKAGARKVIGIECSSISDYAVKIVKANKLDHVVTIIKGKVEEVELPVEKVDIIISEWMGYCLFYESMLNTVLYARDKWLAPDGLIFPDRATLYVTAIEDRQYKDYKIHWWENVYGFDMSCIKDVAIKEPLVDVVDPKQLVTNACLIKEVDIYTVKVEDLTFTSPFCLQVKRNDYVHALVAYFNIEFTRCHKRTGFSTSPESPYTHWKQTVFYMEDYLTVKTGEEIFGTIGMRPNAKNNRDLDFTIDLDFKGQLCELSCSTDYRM
Sequence of MettL5–Trm112 (Q9NRN9 whole entry): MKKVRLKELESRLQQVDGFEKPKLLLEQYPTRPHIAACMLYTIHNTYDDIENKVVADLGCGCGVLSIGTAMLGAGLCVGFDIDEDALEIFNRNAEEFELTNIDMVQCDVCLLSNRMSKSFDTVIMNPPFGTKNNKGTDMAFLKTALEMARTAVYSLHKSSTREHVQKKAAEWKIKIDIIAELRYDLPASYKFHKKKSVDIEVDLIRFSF
Sequence of MettL5–Trm112 (Q9UI30 whole entry partner): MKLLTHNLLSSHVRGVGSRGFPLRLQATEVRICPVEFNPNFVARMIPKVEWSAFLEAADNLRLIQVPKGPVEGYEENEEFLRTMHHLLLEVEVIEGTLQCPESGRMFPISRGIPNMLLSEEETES
Sequence of PRMT3 (O60678 211-531): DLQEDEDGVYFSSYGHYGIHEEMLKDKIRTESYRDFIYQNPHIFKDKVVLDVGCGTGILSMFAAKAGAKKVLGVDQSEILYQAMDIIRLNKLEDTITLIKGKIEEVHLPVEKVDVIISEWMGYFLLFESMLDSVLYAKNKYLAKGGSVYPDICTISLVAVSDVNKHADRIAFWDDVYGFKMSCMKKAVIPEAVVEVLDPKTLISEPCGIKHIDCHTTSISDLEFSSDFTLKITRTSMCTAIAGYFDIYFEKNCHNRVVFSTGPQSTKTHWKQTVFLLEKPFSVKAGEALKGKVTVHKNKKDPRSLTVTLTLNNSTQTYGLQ
Sequence of MettL3–MettL14 (Q86U44 whole entry): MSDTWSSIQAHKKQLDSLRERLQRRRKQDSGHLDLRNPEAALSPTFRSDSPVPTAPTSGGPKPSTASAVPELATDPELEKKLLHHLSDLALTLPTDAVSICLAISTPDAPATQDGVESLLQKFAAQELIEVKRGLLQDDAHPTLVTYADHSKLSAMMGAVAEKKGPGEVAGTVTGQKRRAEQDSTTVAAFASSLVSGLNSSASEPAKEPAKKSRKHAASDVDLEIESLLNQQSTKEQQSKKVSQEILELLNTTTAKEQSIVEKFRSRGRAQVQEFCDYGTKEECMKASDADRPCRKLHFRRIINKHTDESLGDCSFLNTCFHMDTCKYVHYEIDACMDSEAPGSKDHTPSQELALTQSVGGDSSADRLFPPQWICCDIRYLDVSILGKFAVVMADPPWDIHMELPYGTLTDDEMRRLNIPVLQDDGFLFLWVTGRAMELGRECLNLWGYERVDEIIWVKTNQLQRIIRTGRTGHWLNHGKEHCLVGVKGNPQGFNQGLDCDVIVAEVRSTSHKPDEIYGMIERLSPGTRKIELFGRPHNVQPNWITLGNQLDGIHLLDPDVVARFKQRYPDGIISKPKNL
Sequence of MettL3–MettL14 (Q9HCE5 whole entry partner): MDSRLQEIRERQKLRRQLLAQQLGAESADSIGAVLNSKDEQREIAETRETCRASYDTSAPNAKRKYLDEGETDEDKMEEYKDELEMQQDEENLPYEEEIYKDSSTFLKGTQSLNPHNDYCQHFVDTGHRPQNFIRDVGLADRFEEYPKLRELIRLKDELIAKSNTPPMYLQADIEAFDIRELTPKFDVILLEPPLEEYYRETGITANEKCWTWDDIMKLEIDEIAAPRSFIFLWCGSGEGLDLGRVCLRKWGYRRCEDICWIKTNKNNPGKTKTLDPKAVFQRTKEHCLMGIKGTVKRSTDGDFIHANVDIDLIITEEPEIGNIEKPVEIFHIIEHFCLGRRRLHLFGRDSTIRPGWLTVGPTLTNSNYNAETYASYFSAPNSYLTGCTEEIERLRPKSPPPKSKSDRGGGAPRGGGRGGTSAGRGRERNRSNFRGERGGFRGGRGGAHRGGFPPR
Sequence of PCIF1 (Q9H4Z3 whole entry): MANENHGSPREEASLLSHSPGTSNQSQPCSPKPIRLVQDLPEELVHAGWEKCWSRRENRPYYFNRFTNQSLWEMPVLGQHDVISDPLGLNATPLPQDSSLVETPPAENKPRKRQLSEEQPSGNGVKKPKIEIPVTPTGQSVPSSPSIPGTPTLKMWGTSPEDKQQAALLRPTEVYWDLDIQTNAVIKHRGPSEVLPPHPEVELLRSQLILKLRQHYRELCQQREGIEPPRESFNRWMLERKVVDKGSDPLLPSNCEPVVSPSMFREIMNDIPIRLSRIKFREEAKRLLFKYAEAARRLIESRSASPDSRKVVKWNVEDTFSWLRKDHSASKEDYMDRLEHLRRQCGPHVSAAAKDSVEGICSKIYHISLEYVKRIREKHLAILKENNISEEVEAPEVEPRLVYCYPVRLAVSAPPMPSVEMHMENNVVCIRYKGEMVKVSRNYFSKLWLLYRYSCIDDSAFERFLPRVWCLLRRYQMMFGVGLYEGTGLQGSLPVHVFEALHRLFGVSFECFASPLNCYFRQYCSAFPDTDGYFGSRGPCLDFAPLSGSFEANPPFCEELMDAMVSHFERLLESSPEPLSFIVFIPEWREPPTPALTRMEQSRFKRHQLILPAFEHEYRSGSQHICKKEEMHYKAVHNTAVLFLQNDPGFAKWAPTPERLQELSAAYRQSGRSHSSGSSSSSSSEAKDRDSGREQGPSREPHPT
Sequence of CcrM (P0CAW2 whole entry): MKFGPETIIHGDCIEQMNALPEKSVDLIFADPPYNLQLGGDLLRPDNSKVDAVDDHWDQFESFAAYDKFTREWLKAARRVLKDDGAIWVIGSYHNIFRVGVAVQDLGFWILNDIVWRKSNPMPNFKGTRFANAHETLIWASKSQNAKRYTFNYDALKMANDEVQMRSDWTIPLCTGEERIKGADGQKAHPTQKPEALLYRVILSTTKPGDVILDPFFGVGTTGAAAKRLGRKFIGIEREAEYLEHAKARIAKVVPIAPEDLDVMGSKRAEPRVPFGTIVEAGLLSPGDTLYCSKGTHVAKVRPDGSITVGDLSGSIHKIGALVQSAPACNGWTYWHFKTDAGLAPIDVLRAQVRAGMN

inhibition of CamA activity at single concentration (CamA [1]): ~60%
SMILES: N=C(NCCCSC[C@H]1O[C@@H](n2cnc3c(N)ncnc32)[C@H](O)[C@@H]1O)NC1CCCCC1 [6d]

inhibition of CamA activity at single concentration (CamA [1]): ~85% | inhibition of CamA activity (selectivity panel) (CamA [1]): ≥ 80% | fold improved potency of CamA inhibition relative to SGC0946 (CamA [1]; ratio of IC50 values): > 3 × | fold weaker inhibition of CamA than of PRMT1 (CamA [1]; ratio of IC50 values CamA vs PRMT1): 12.5 × | fold stronger inhibition of CamA than of PRMT3 (CamA [1]; ratio of IC50 values CamA vs PRMT3): > 4 × | IC50 (PRMT3): 6500 nM | inhibition at 10 µM (CcrM): ≤ 50% | inhibition at 10 µM (Dam): ≤ 50% | IC50 (MettL3–MettL14): > 10000 nM | inhibition at 10 µM (MettL3–MettL14): ~50% | inhibition at 10 µM (MettL5–Trm112): ~50% | inhibition at 10 µM (MettL16): ≤ 50% | inhibition at 10 µM (PCIF1): ≤ 50%
SMILES: N=C(NCCCSC[C@H]1O[C@@H](n2cnc3c(N)ncnc32)[C@H](O)[C@@H]1O)NCC1CCCCC1 [6e]

inhibition of CamA activity at single concentration (CamA [1]): ~10%
SMILES: N=C(NCCCSC[C@H]1O[C@@H](n2cnc3c(N)ncnc32)[C@H](O)[C@@H]1O)NCc1ccccc1 [6g]

SMILES: N=C(NCCSC[C@H]1O[C@@H](n2cnc3c(NCCCc4ccccc4)ncnc32)[C@H](O)[C@@H]1O)NCC1CCCCC1 [11a, 1-(cyclohexylmethyl)-3-(2-((((2S,3S,4R,5R)-3,4-dihydroxy-5-(6-((3-phenylpropyl)amino)-9H-purin-9-yl)tetrahydrofuran-2-yl)methyl)thio)ethyl)guanidine]
IC50 (CamA [1]): ~150 nM | Ki (CamA [1]): 90 nM | inhibition of CamA activity (selectivity panel) (CamA [1]): ≥ 80% | fold difference in CamA inhibition between 11a and 11b (CamA [1]): 1.8 × | fold improvement of CamA inhibition relative to 6e (CamA [1]; ratio of IC50 values): 10 × | fold improvement of CamA inhibition relative to 7 (CamA [1]; ratio of IC50 values): 5 × | mode of CamA inhibition (Lineweaver–Burk plot) (CamA [1]; with respect to SAM): competitive inhibition; also recorded: competitive inhibitor of SAM | IC50 (PRMT1): 14000 nM | fold reduction of PRMT1 inhibition from that of 6e (PRMT1; ratio of IC50 values): ~116 × | IC50 (PRMT3): > 100000 nM | inhibition at 10 µM (MettL3–MettL14): ≤ 50% | inhibition at 10 µM (MettL5–Trm112): ≤ 50% | inhibition at 10 µM (PCIF1): ≤ 50%

IC50 (CamA [1]): 270 nM | fold difference in CamA inhibition between 11a and 11b (CamA [1]): 1.8 × | IC50 (PRMT1): 1200 nM | fold reduction of PRMT1 inhibition from that of 6e (PRMT1; ratio of IC50 values): 10 × | fold stronger inhibition of PRMT1 than 11a (PRMT1; ratio of IC50 values): > 11 × | inhibition at 10 µM (CcrM): ≤ 50% | inhibition at 10 µM (Dam): ≤ 50% | inhibition at 10 µM (MettL3–MettL14): ≤ 50% | inhibition at 10 µM (MettL5–Trm112): ~50% | inhibition at 10 µM (MettL16): ≤ 50% | inhibition at 10 µM (PCIF1): ≤ 50%
SMILES: N=C(NCCCSC[C@H]1O[C@@H](n2cnc3c(NCCCc4ccccc4)ncnc32)[C@H](O)[C@@H]1O)NCC1CCCCC1 [11b]

inhibition of CamA compared with compounds 1–3 (in words) (CamA [1]; 10 μM, Figure 1B, also ref 31): much weaker inhibition
SMILES: Nc1ncnc2c1ccn2[C@@H]1O[C@H]([C@H](O)c2ccccc2)[C@@H](O)[C@H]1O [LLY-283, reference compound]

Km (CamA [1]; read-out: Km of CamA for SAM, Michaelis–Menten, varying SAM (Figure 2E)): 25 µM
SMILES: C[S+](CC[C@H](N)C(=O)[O-])C[C@H]1O[C@@H](n2cnc3c(N)ncnc32)[C@H](O)[C@@H]1O (stereo partly drawn) [SAM, S-Adenosyl-L-methionine]
Km (CamA [2]): > 17 µM | Km (MettL5): 1 µM

inhibition at 10 µM (CcrM): ≤ 50% | inhibition at 10 µM (Dam): ≤ 50% | inhibition at 10 µM (MettL3–MettL14): ≤ 50% | inhibition at 10 µM (MettL5–Trm112): ≤ 50% | inhibition at 10 µM (MettL16): ≤ 50% | inhibition at 10 µM (PCIF1): ≤ 50%
SMILES: OC[C@H]1O[C@@H](n2cnc3c(NCCCc4ccccc4)ncnc32)[C@H](O)[C@@H]1O [compound 7, N6-phenylpropyladenosine]
inhibition of PRMT1 (in words) (PRMT1): does not significantly inhibit; also recorded: inhibits neither | inhibition of PRMT3 (in words) (PRMT3): does not significantly inhibit; also recorded: inhibits neither
